From ChEMBL document CHEMBL3621196, “Quinazolinedione SIRT6 inhibitors sensitize cancer cells to chemotherapeutics” (Eur J Med Chem, 2015)
Active and inactive are the calls of the source. The calls are words filed in the database; no cut-off is given here.

Tests used:
[1] = molecular target: T1, NAD-dependent protein deacylase sirtuin-6 (Homo sapiens, UniProt Q8N6T7); assay: Inhibition of human recombinant SIRT6 deacetylase activity using Arg-His-Lys-Lys(AC)-AMC as a substrate by […] assay
[2] = molecular target: T1, NAD-dependent protein deacylase sirtuin-6; assay: Inhibition of human SIRT6 deacetylase activity using Arg-His-Lys-Lys(AC)-AMC as a substrate by fluorescence assay
[3] = molecular target: T1, NAD-dependent protein deacylase sirtuin-6; assay: Inhibition of SIRT6 in human BxPC-3 cells assessed as increase in H3K9 acetylation by immunoblotting assay relative to control; assay type: cell-based
Homo sapiens [4] = species: Homo sapiens; assay: Selectivity ratio of IC50 for human SIRT1 to IC50 for human SIRT6
Homo sapiens [5] = species: Homo sapiens; assay: Selectivity ratio of IC50 for human SIRT2 to IC50 for human SIRT6
[6] = molecular target: T1, NAD-dependent protein deacylase sirtuin-6; assay: Competitive inhibition of human recombinant SIRT6 deacetylase activity using NAD+ as a substrate at 50 uM by double-reciprocal plot analysis
[7] = molecular target: T1, NAD-dependent protein deacylase sirtuin-6; assay: Competitive inhibition of human recombinant SIRT6 deacetylase activity using Arg-His-Lys-Lys(AC)-AMC as a substrate at 50 uM by double-reciprocal plot analysis
[8] = molecular target: T1, NAD-dependent protein deacylase sirtuin-6; assay: Inhibition of SIRT6 in human BxPC-3 cells assessed as increase in radiolabelled glucose uptake at 100 uM after 18 hrs by fluorescence plate reader relative to control; assay type: cell-based
[9] = molecular target: Protein Sirt6 (Rattus norvegicus) (UniProt A6K863); assay: Inhibition of SIRT6 in rat L6 cells assessed as increase in radiolabelled glucose uptake at 100 uM after 18 hrs by fluorescence plate reader relative to control; assay type: cell-based
[10] = molecular target: Protein Sirt6 (Rattus norvegicus) (UniProt A6K863); assay: Inhibition of SIRT6 in rat L6 cells assessed as increase in 2-NBDG uptake at 100 uM after 18 hrs by fluorescence plate reader relative to control; assay type: cell-based
[11] = molecular target: T1, NAD-dependent protein deacylase sirtuin-6; assay: Inhibition of SIRT6 in human PBMC assessed as inhibition of PHA-induced TNF alpha production at 200 uM after 3 days by ELISA
[12] = molecular target: T1, NAD-dependent protein deacylase sirtuin-6; assay: Inhibition of SIRT6 in human PBMC assessed as inhibition of MLR-induced TNF alpha production at 200 uM after 3 days by ELISA
[13] = Cytotoxicity against human HEK293 cells assessed as cell viability using propidium iodide by flow cytometry; assay type: cell-based; details: read-out: Activity
CAPAN-1 [14] = assay: Induction of DNA damage in human BRCA2-deficient Capan1 cells assessed as increase in gammaH2AX levels at 100 uM after 24 hrs by confocal microscopy; assay type: functional, cell-based
[15] = molecular target: T1, NAD-dependent protein deacylase sirtuin-6; assay: Inhibition of human SIRT6 in BRCA2-deficient Capan1 cells assessed as potentiation of olaparib-induced DNA damage by measuring gammaH2AX levels at 100 uM after 24 hrs by confocal microscopy; assay type: cell-based; details: CAPAN-1
[16] = molecular target: T1, NAD-dependent protein deacylase sirtuin-6; assay: Inhibition of human SIRT6 in BRCA2-deficient Capan1 cells assessed as potentiation of olaparib-induced DNA damage by measuring gammaH2AX levels at 100 uM after 24 hrs by flow cytometry analysis; assay type: cell-based; details: CAPAN-1
CAPAN-1 [17] = assay: Induction of DNA damage in human BRCA2-deficient Capan1 cells assessed as increase in gammaH2AX levels at 100 uM after 24 hrs by flow cytometry analysis; assay type: functional, cell-based
[18] = molecular target: T1, NAD-dependent protein deacylase sirtuin-6; assay: Inhibition of human SIRT6 in BRCA2-deficient Capan1 cells assessed as potentiation of olaparib-induced DNA damage by measuring cell viability at 100 uM after 7 days by CellTiter96 Aqueous1 assay; assay type: cell-based; details: CAPAN-1
[19] = molecular target: T1, NAD-dependent protein deacylase sirtuin-6; assay: Inhibition of SIRT6 in human BxPC3 cells assessed as reduction in TNF alpha production by ELISA; assay type: cell-based; details: BXPC-3, concentration not given here
[20] = molecular target: T1, NAD-dependent protein deacylase sirtuin-6; assay: Inhibition of human SIRT6 in […] Capan1 cells assessed as potentiation of NU1025-induced cytotoxicity by measuring cell viability at 100 uM after 7 days by CellTiter96 Aqueous1 assay; assay type: cell-based; details: CAPAN-1
CAPAN-1 [21] = assay: Induction of DNA damage in human BRCA2-deficient Capan1 cells assessed as increase in gammaH2AX levels at 8 uM after 24 hrs by confocal microscopy; assay type: functional, cell-based
CAPAN-1 [22] = assay: Induction of DNA damage in human BRCA2-deficient Capan1 cells assessed as increase in gammaH2AX levels at 8 uM after 24 hrs by flow cytometry analysis; assay type: functional, cell-based
[23] = Cytotoxicity against human BxPC3 cells assessed as cell viability at 30 uM after 72 hrs by CellTiter96 Aqueous1 assay; assay type: cell-based, BXPC-3; details: for Activity: bxpc-3, 72 h, 30 µM
[24] = molecular target: T2, NAD-dependent protein deacetylase sirtuin-1 (Homo sapiens, UniProt Q96EB6); assay: Inhibition of human SIRT1 deacetylase activity using Arg-His-Lys-Lys(AC)-AMC as a substrate by fluorescence assay
T2 sequence (Q96EB6 whole entry): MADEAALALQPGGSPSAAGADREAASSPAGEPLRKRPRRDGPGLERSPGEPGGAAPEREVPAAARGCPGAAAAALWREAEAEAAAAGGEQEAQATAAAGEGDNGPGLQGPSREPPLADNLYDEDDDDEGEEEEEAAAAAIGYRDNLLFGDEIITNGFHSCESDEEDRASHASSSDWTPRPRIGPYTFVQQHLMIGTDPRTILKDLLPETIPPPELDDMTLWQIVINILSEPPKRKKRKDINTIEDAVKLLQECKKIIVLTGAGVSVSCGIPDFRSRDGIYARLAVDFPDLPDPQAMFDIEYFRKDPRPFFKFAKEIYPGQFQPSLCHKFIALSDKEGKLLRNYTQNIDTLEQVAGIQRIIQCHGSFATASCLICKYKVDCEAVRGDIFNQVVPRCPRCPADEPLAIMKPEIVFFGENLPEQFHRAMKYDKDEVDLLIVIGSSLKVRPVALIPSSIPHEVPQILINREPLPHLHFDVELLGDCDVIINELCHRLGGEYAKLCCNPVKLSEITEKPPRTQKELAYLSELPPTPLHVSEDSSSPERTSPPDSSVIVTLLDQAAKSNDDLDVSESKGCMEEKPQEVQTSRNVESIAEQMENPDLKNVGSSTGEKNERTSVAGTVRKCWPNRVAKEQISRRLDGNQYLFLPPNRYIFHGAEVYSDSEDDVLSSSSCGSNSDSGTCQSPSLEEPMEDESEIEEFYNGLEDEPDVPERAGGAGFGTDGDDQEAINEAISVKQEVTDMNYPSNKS

[25] = molecular target: T3, NAD-dependent protein deacetylase sirtuin-2 (Homo sapiens, UniProt Q8IXJ6); assay: Inhibition of human SIRT2 deacetylase activity using Arg-His-Lys-Lys(AC)-AMC as a substrate by fluorescence assay
T3 sequence (Q8IXJ6 whole entry): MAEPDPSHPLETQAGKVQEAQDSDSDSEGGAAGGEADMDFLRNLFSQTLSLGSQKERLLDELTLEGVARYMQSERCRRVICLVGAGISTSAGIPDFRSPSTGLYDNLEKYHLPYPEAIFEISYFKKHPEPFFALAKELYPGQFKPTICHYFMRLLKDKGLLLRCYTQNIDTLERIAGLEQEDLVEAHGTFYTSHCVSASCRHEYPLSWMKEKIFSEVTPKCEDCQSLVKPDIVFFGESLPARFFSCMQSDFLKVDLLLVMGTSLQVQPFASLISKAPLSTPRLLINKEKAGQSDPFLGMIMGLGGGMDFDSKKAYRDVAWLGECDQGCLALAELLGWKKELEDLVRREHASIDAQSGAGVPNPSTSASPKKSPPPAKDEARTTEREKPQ

[26] = molecular target: T1, NAD-dependent protein deacylase sirtuin-6; assay: Inhibition of SIRT6 in human PBMC assessed as inhibition of PHA-induced TNF alpha production at 100 uM after 3 days by ELISA
[27] = molecular target: T1, NAD-dependent protein deacylase sirtuin-6; assay: Inhibition of SIRT6 in human PBMC assessed as inhibition of MLR-induced TNF alpha production at 100 uM after 3 days by ELISA
[28] = molecular target: T1, NAD-dependent protein deacylase sirtuin-6; assay: Inhibition of SIRT6 in human BxPC3 cells assessed as potentiation of gemcitabine-induced cytotoxicity by measuring cell viability at 30 uM by CellTiter96 Aqueous1 assay; assay type: cell-based; details: BXPC-3

T1 sequence (Q8N6T7 whole entry): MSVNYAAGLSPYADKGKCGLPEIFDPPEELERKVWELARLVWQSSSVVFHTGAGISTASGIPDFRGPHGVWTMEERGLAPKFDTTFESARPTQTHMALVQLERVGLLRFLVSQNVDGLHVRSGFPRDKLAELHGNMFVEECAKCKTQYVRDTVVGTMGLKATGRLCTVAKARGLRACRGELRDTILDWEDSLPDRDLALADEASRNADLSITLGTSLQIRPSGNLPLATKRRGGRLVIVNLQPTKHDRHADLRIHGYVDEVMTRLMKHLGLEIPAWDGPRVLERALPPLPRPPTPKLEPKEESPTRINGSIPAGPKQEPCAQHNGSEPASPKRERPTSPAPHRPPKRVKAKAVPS
Chain of Protein Sirt6 (Rattus norvegicus) (A6K863 as listed by the source): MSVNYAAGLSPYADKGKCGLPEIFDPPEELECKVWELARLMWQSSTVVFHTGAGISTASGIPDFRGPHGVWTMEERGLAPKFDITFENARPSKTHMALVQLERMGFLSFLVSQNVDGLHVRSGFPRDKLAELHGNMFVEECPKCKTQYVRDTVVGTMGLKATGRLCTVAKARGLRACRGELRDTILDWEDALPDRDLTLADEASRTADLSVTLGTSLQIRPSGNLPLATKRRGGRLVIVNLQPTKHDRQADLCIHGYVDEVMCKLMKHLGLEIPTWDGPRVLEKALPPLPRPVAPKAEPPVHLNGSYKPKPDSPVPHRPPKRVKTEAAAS

O=c1[nH]c(=O)c2cc(S(=O)(=O)NCc3cccc(Cn4ccnc4)c3)ccc2[nH]1
IC50 [1]: 2870 µM

O=C1CCCN1c1ccc(S(=O)(=O)Nc2ccc(Oc3cccnc3)cc2)cc1
IC50 [2]: 441 µM

CC(=O)Nc1ccc(S(=O)(=O)Nc2ccc(Oc3cccnc3)cc2)cc1
IC50 [2]: 297 µM
IC50 [1]: 242 µM

O=c1[nH]c(=O)c2cc(S(=O)(=O)NC3CCN(Cc4ccccc4)C3)ccc2[nH]1 (centres undefined)
IC50 [1]: 517 µM

O=c1[nH]c(=O)c2cc(S(=O)(=O)Nc3ccc(Oc4cccnc4)cc3)ccc2[nH]1
fold increase in H3K9 acetylation [3]: 2.2 fold
IC50 [1]: 136 µM
Ratio IC50 (Homo sapiens [4]): 2.96
Ratio IC50 (Homo sapiens [5]): 1.07
inhibition [6]: Active
inhibition [7]: Active
fold increase in glucose uptake [8]: 1.3 fold
fold increase in glucose uptake [9]: 2 fold
fold increase in 2-NBDG uptake [10]: 2.4 fold
inhibition [11]: 52%
inhibition [12]: 47%
viability [13]: > 50%
Activity (CAPAN-1 [14]): Active
Activity [15]: Active
Activity [16]: Active
Activity (CAPAN-1 [17]): Active
Activity [18]: Active
inhibition [19]: 73%
Activity [20]: Active

O=C1CCc2cc(S(=O)(=O)Nc3ccc(Oc4cccnc4)cc3)ccc2N1
IC50 [2]: 270 µM
IC50 [1]: 275 µM

O=C(c1cc(Cc2n[nH]c(=O)c3ccccc23)ccc1F)N1CCN(C(=O)C2CC2)CC1
Activity (CAPAN-1 [21]): Active
Activity (CAPAN-1 [22]): Active

O=c1[nH]c(=O)c2cc(S(=O)(=O)Nc3cccc(CCc4ccncc4)c3)ccc2[nH]1
fold increase in H3K9 acetylation [3]: 1.4 fold
Activity [23]: Non-toxic
IC50 [2]: 37 µM
IC50 [1]: 55 µM
IC50 [24]: 424 µM
IC50 [25]: 85 µM
Ratio IC50 (Homo sapiens [4]): 11.5
Ratio IC50 (Homo sapiens [5]): 2.3
inhibition [6]: Active
inhibition [7]: Active
fold increase in glucose uptake [8]: 1.2 fold
fold increase in glucose uptake [9]: 2.8 fold
fold increase in 2-NBDG uptake [10]: 1 fold
inhibition [26]: 44%
inhibition [27]: 27%
viability [13]: > 80%
Activity [18]: Active
Activity [28]: Active
inhibition [19]: 72%
Activity [20]: Active

Cn1c(=O)sc2cc(S(=O)(=O)Nc3ccc(Oc4cccnc4)cc3)ccc21
IC50 [2]: 77 µM
IC50 [1]: 102 µM

O=S(=O)(Nc1ccc(Oc2cccnc2)cc1)c1ccccc1
IC50 [1]: 300 µM

O=c1[nH]c(=O)c2cc(S(=O)(=O)Nc3ccc(Oc4ccccc4)cc3)ccc2[nH]1
IC50 [1]: 127 µM

O=c1[nH]c(=O)c2cc(S(=O)(=O)Nc3ccccc3-c3ccccc3)ccc2[nH]1
IC50 [2]: 137 µM
IC50 [1]: 137 µM

O=c1[nH]c(=O)c2cc(S(=O)(=O)Nc3ccc(Cn4ccnc4)cc3)ccc2[nH]1
fold increase in H3K9 acetylation [3]: 1.5 fold
Activity [23]: Non-toxic
IC50 [2]: 60 µM
IC50 [24]: 238 µM
IC50 [25]: 159 µM
Ratio IC50 (Homo sapiens [4]): 3.97
Ratio IC50 (Homo sapiens [5]): 2.65
fold increase in glucose uptake [8]: 0.6 fold
fold increase in glucose uptake [9]: 0.8 fold
fold increase in 2-NBDG uptake [10]: 0.7 fold
inhibition [26]: 31%
inhibition [27]: 21%
viability [13]: > 80%
Activity [28]: Active
inhibition [19]: 25%
Activity [20]: Active

Cn1ccc2cc(NS(=O)(=O)c3ccc4[nH]c(=O)[nH]c(=O)c4c3)ccc21
IC50 [1]: 82 µM

Cn1c(=O)c2cc(S(=O)(=O)Nc3ccc(Cc4ccncc4)cc3)ccc2n(C)c1=O
fold increase in H3K9 acetylation [3]: 1.6 fold
viability at 72 h, 30 µM ([23]; BxPC3 cells, read-out: Activity): 75%
IC50 [2]: 49 µM
IC50 [1]: 38 µM
IC50 [24]: 6520 µM
IC50 [25]: 242 µM
Ratio IC50 (Homo sapiens [4]): 133
Ratio IC50 (Homo sapiens [5]): 4.94
inhibition [6]: Active
inhibition [7]: Active
fold increase in glucose uptake [8]: 1.9 fold
fold increase in glucose uptake [9]: 4 fold
fold increase in 2-NBDG uptake [10]: 3.1 fold
